# “Also recorded” adds a separate entry of the source.
# Experiments:
# TRAP1 [1] = molecular target: T1, TRAP1 (Homo sapiens, UniProt Q12931); test: Protein expression analysis by western blot in 22Rv1 cells, TRAP1 inhibition markers; format: cell-based; set-up: endogenous in cells; host or cells: 22Rv1; conditions: 5 µM of each compound, 2 hours
# T1 sequence (Q12931 60-704): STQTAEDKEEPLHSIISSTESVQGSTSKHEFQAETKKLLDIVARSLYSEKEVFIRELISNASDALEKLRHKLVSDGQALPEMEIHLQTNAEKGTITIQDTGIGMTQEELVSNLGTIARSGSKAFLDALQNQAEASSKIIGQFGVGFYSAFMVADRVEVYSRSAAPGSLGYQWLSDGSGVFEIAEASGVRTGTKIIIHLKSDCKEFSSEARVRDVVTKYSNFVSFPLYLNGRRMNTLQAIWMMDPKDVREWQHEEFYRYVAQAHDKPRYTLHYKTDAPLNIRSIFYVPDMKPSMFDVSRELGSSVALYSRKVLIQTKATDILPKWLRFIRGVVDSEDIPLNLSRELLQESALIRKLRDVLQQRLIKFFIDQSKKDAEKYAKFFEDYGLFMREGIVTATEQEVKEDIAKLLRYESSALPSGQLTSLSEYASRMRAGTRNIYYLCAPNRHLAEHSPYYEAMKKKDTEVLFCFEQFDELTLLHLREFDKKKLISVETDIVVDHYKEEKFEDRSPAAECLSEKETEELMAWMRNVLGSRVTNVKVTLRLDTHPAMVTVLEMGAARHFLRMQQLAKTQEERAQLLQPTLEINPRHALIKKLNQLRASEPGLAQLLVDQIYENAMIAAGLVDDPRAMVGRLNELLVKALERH
# Protocol: Human cancer cell line 22Rv1 was purchased from the American Type Culture Collection (ATCC) and maintained as recommended by the supplier. Briefly, cancer cells were incubated in a DMEM or RPMI medium (GIBCO) containing 10% fetal bovine serum (FBS; ATCC) and 1% penicillin/streptomycin (GIBCO) at 37° C. in a humidified atmosphere of 5% CO2. The cells were not incubated for more than 6 months.
# The 22Rv1 cells were treated with 5 µM of each compound, cultured for 2 hours, and then analyzed by western blot.
# Cell lysates were separated by SDS-PAGE and transferred to a PVDF membrane. The membrane was blocked with 10% skim milk in TBST (TBS containing 0.05% Tween-20) for 1 hour at room temperature and incubated with primary antibodies overnight at 4° C. The membrane was washed with TBST three times for 1 hour and incubated with secondary antibodies (1:5000) diluted in 10% skim milk in TBST for 1 hour. The membrane was washed with TBST three times and visualized using an enhanced chemiluminescence detection kit (BioRad).
# [2] = molecular target: T2, human full-length TRAP1 protein (Homo sapiens, UniProt Q12931); test: Fluorescence polarization (FP) analysis using SB-TM2 probe (client-binding site); conditions: for IC50: FP analysis using SB-TM2; for Activity compared to that of SMX: TRAP1 binding, relative to SMX of the same table; for binding capacity compared to that of SMX (MitoQ) / TRAP1 binding capacity (competitive binding with SB-TM2, CBS of TRAP1): result in words
# T2 construct: containing human full-length TRAP1 protein (400 nM); hexahistidine tag followed by TEV protease cleavage site (N, cleaved yes); made in house; host or cells: E. coli BL21 (DE3)
# T2 sequence (Q12931 60-704): T1 sequence (Q12931 60-704)
# Protocol: The substance to be analyzed (at a final volume of 100 μL) was added to FP buffer ([…], 2.7 mM KCl, 4.3 mM Na2HPO4, 1.4 mM KH2PO4 (pH 7.3), 1 mM DTT, 2 mM MgCl2, and 0.1 mg/mL BSA) containing human full-length TRAP1 protein (400 nM) and SB-TM2 probe (100 nM) and then reacted at room temperature for 1 hour (96-well plate). Using a SYNERGY NEO microplate reader, FP was measured at an excitation wavelength set to 440 nm and an emission wavelength set to 500 nm.
# HIF1α = test: Drug activity assay using MIO-M1 HRE/GFP cell line under hypoxia; format: cell-based; conditions: for IC50: HIF1α inhibitory activity in MIO-M1 cells, 1% O2 24 hours; for Activity compared to that of SMX: HIF1α inhibition, relative to SMX of the same table
# Protocol: After transfection (jetPRIME kit) of MIO-M1 Müller cells with 5HRE/GFP plasmid (Addgene, #46926), the cells transfected with the plasmid were selected using 1 mg/ml of G418 (Neomycin), a selectable marker. A stable cell line was constructed by selecting cells, growing in a colony form, from single cells. The prepared MIO-M1-HRE/GFP stable cell line was dispensed into a 96-well plate and treated with drugs at different concentrations the next day. After being exposed to a hypoxic environment (1% O2) for 24 hours, the GFP (Ex/Em: 488/507) fluorescence signal was measured using a SYNERGY NEO microplate reader (BioTek Instrument). The relative fluorescence value was calculated on the basis of 100% of the negative control group.
# TRAP1 [3] = molecular target: T1, TRAP1; test: ATPase activity assay (PiColorLock Gold Phosphate Detection Kit); format: biochemical; set-up: hexahistidine tag followed by TEV protease cleavage site (N, cleaved yes); made in house; host or cells: E. coli BL21 (DE3); conditions: result in words
# Protocol: The ATPase activity of TRAP1 was measured using the PiColorLock Gold Phosphate Detection Kit (Abcam). Then, 0.5 µM TRAP1 (wild-type or mutation) was pre-incubated along with inhibitors at various concentrations for 30 minutes and then incubated with 0.2 mM ATP at 37° C. for 3 hours in ATPase activity assay buffer containing 50 mM Tris-HCl, 20 mM KCl, and 6 mM MgCl (pH 7.4). Next, 20 µL of a mixture of a PiColorLock Gold reagent and an accelerator (100:1) was added to each sample (100 μL). After 5 minutes of incubation, 10 μL of a stabilizer was added to stop color development. Absorbance was measured at 620 nm using a microplate reader (Synergy NEO, BioTek). The background signal was normalized by subtracting the absorbance of unreacted samples.
# 22Rv1 cells = test: In vivo mouse xenograft; set-up: species or system mice; conditions: 3 mg/Kg intraperitoneally daily
# Protocol: Immunodeficient athymic nude mice (male, 8 weeks old) were purchased from OrientBio. The mice were maintained in a pathogen-free facility (12-hour dark/light cycle) at the UNIST In Vivo Research Center and supplied with standard diet and water. All animal experiments were approved by UNIST ([…]-19-11). 22Rv1 cells (1×10^7) were injected subcutaneously into both sides of the nude mice. When the tumor size reached approximately 100 mm^3, 3 mg/Kg drugs (MitoQ, SB-U014, and SB-U015) and vehicle (DMSO) dissolved in 20% cremophor EL (Sigma) in PBS were administered intraperitoneally daily. The tumor volume was measured daily using an electronic caliper and calculated using the following equation: V=½× (width) 2× length. When the experiment was completed, animals were euthanized, and the tumor was collected for histology and western blot. Band intensities were quantified using ImageJ software (National Institute of Health, USA). In this case, western blot was performed in the same manner as described above.
# [4] = MIO-M1, 24 h, Table 6, alkyl-TPPs
# [5] = 22Rv1 xenograft in nude mice, compared to DMSO
SMILES,"IC50 ([2]; Table 1, alkyl-TPPs) [nM]",Activity compared to that of SMX ([2]; Table 1),binding capacity compared to that of SMX (MitoQ) [2],IC50 (HIF1α; [4]) [nM],Activity compared to that of SMX (HIF1α; Table 6),TRAP1 ATPase activity with increasing concentration (TRAP1 [3]),further results
"CCCCCCCCCCCCCCCC[P+](c1ccccc1)(c1ccccc1)c1ccccc1 [TPP-16, Hexadecyltriphenylphosphonium]",309 ± 26,2.01,superior to that of SMX; also recorded: twice as strong as that of SMX,30 ± 26,15.59,–,SDHB and SIRT3 expression (TRAP1 inhibition) (TRAP1 [1]): strong effects; binding capacity compared to that of SMX (MitoQ) ([2]; listed as hexadecyl-TPP): superior to that of SMX; also recorded: twice as strong as that of SMX
"COc1c(Br)c(C)c(CCCCCCCCCC[P+](c2ccccc2)(c2ccccc2)c2ccccc2)c(OC)c1OC [SB-U011, (10-(3-Bromo-4,5,6-trimethoxy-2-methylphenyl)decyl)triphenylphosphonium]",–,–,–,–,–,did not show a tendency that the ATPase activity decreased in a concentration-dependent manner,"IC50 ([2]; Table 3, other synthetic compounds): 684 ± 72.9 nM; Activity compared to that of SMX ([2]; Table 3): 1.156; IC50 (HIF1α; Table 8, other synthetic compounds): 85.3 ± 8.8 nM; Activity compared to that of SMX (HIF1α; Table 8): 6.02"
"CC(C)NCCCn1c(Sc2cc3c(cc2I)OCO3)nc2c(N)ncnc21 [PU-H71, reference compound]",–,–,–,–,–,ATPase activity decreased with the increasing concentration,–
"COc1cc(C)c(CCCCCCCCCC[P+](c2ccccc2)(c2ccccc2)c2ccccc2)cc1OC [SB-U015, (10-(4,5-Dimethoxy-2-methylphenyl)decyl)triphenylphosphonium]",–,–,–,–,–,did not show a tendency that the ATPase activity decreased in a concentration-dependent manner,"tumor size (22Rv1 cells; [5]): the tumor size became smaller; tumor weight (22Rv1 cells; [5]): the tumor weight decreased; Akt, Cdk4, and Hsp70 in tumors (western blot) (22Rv1 cells; 22Rv1 xenograft tumors): without causing changes in Akt, Cdk4, and Hsp70; SDHB, SIRT3, p-AMPK and CHOP in tumors (western blot) (22Rv1 cells; 22Rv1 xenograft tumors): decreases in SDHB and SIRT3, activated AMPK (p-AMPK), and induced the mitochondrial unfolded protein response (CHOP); IC50 ([2]; Table 4, other synthetic compounds): 1830 ± 285 nM; Activity compared to that of SMX ([2]; Table 4): 0.22; IC50 (HIF1α; MIO-M1, 24 h, Table 9, other synthetic compounds): 88.7 ± 5.8 nM; Activity compared to that of SMX (HIF1α; Table 9): 3.14"

# Second part, led by results:
"IC50 ([2]; Table 1, alkyl-TPPs) [nM]",Activity compared to that of SMX ([2]; Table 1),binding capacity compared to that of SMX (MitoQ) [2],IC50 (HIF1α; [4]) [nM],SMILES,Activity compared to that of SMX (HIF1α; Table 6),TRAP1 ATPase activity with increasing concentration (TRAP1 [3]),further results
384 ± 39.2,1.62,superior to that of SMX,34 ± 39.2,"CCCCCCCCCCCCCC[P+](c1ccccc1)(c1ccccc1)c1ccccc1 [TPP-14, Tetradecyltriphenylphosphonium]",13.76,–,SDHB and SIRT3 expression (TRAP1 inhibition) (TRAP1 [1]): strong effects
2570 ± 258,0.24,–,643 ± 258,"CCCCCCCC[P+](c1ccccc1)(c1ccccc1)c1ccccc1 [TPP-8, Octyltriphenylphosphonium]",0.73,–,"TRAP1 binding capacity (competitive binding with SB-TM2, CBS of TRAP1) [2]: competitive binding with SB-TM2 was confirmed to be enabled; TRAP1 binding capacity (competitive binding with SB-TM2, CBS of TRAP1) ([2]; listed as octyl-TPP): competitive binding to SB-TM2 is confirmed to be enabled"
377 ± 35.4,1.65,superior to that of SMX,111 ± 35.4,"CCCCCCCCCCCC[P+](c1ccccc1)(c1ccccc1)c1ccccc1 [TPP-12, Dodecyltriphenylphosphonium]",4.21,–,–
18800 ± 5390,0.03,–,1430,"CCCCCC[P+](c1ccccc1)(c1ccccc1)c1ccccc1.[Br-] [TPP-6, hexyltriphenylphosphonium bromide, reference compound]",0.33,–,–
